The text below walks through data of patent publication US11564969B2, “Immunorhelin compounds for intracellular infections” (ISR IMMUNE SYSTEM REGULATION HOLDING AB (PUBL), priority 2017, dated 2023).

Data set [1] is described as follows: Solubility analysis in PBS (Analysis Method B). The class given is physicochemical. Conditions: pH 7.4. As to the method:
The solubility of compounds of the invention was tested as described in the general methods. Solubility was then graded according to a rating between 1 to 5, where 1 is most soluble and 5 is least soluble.

A further data set concerns the target T1, GnRHR (Homo sapiens, UniProt P30968).
T1 sequence (P30968 1-328): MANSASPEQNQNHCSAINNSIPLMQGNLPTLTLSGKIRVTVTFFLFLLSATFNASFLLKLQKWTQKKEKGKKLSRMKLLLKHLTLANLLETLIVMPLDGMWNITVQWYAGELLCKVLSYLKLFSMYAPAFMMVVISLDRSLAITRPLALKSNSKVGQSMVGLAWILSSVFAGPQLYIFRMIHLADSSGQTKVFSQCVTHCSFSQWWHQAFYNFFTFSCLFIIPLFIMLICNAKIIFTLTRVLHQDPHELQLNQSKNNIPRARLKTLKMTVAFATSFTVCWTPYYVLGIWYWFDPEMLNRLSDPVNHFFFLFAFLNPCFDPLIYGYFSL
Conditions: 1000.0.

SMILES strings stand for the structures. Square brackets hold non-standard residues; d marks the D form. Peptide text beside a SMILES is read from it. dHis(τ-Bn) = N[C@H](Cc1cn(Cc2ccccc2)cn1)C(=O)O; d2Nal = N[C@H](Cc1ccc2ccccc2c1)C(=O)O; pGlu = O=C1CC[C@@H](C(=O)O)N1

For `CC(C)C[C@H](NC(=O)[C@@H](Cc1ccc2ccccc2c1)NC(=O)[C@H](Cc1ccc(O)cc1)NC(=O)[C@H](CO)NC(=O)[C@H](Cc1c[nH]c2ccccc12)NC(=O)[C@H](Cc1c[nH]cn1)NC(=O)[C@@H]1CCC(=O)N1)C(=O)N[C@@H](Cc1ccc(O)cc1)C(=O)N1CCC[C@H]1C(=O)NCC(N)=O` [Compound 25, pGlu-His-Trp-Ser-Tyr-D-Nal-Leu-Tyr-Pro-Gly-amide] ([pGlu]HWSY[d2Nal]LYPG-NH2), in data set [1], the Solubility grading was 4. Moreover, the “GNRHR Stimulation at 1 μM” value at GnRHR is reported as 82 percentage.
The like results for `N=C(N)NCCC[C@H](NC(=O)[C@H](Cc1c[nH]c2ccccc12)NC(=O)[C@@H](Cc1ccc2ccccc2c1)NC(=O)[C@H](Cc1c[nH]cn1)NC(=O)[C@H](CO)NC(=O)[C@H](Cc1c[nH]c2ccccc12)NC(=O)[C@H](Cc1c[nH]cn1)NC(=O)[C@@H]1CCC(=O)N1)C(=O)N1CCC[C@H]1C(=O)NCC(N)=O` [Compound 27, pGlu-His-Trp-Ser-His-D-Nal-Trp-Arg-Pro-Gly-amide] ([pGlu]HWSH[d2Nal]WRPG-NH2) were, in that order, 1 and 108 percentage.
In turn, `CC(C)C[C@H](NC(=O)[C@@H](Cc1ccc2ccccc2c1)NC(=O)[C@H](Cc1c[nH]cn1)NC(=O)[C@H](CO)NC(=O)[C@H](Cc1c[nH]c2ccccc12)NC(=O)[C@H](Cc1c[nH]cn1)NC(=O)[C@@H]1CCC(=O)N1)C(=O)N[C@@H](Cc1ccc(O)cc1)C(=O)N1CCC[C@H]1C(=O)NCC(N)=O` [Compound 28, pGlu-His-Trp-Ser-His-D-Nal-Leu-Tyr-Pro-Gly-amide] ([pGlu]HWSH[d2Nal]LYPG-NH2) yielded a Solubility grading in data set [1] of 2. Moreover, the “GNRHR Stimulation at 1 μM” value on GnRHR came to 95 percentage.
`NC(=O)CNC(=O)[C@@H]1CCCN1C(=O)[C@H](Cc1ccc(O)cc1)NC(=O)[C@H](Cc1c[nH]c2ccccc12)NC(=O)[C@@H](Cc1ccc2ccccc2c1)NC(=O)[C@H](Cc1ccc(O)cc1)NC(=O)[C@H](CO)NC(=O)[C@H](Cc1c[nH]c2ccccc12)NC(=O)[C@H](Cc1c[nH]cn1)NC(=O)[C@@H]1CCC(=O)N1` [Compound 30, pGlu-His-Trp-Ser-Tyr-D-Nal-Trp-Tyr-Pro-Gly-amide] ([pGlu]HWSY[d2Nal]WYPG-NH2): the Solubility grading in data set [1] is 1. For the same compound, the “GNRHR Stimulation at 1 μM” value on GnRHR is given as 12 percentage.
`NC(=O)CNC(=O)[C@@H]1CCCN1C(=O)[C@H](Cc1ccc(O)cc1)NC(=O)[C@H](Cc1c[nH]c2ccccc12)NC(=O)[C@@H](Cc1ccc2ccccc2c1)NC(=O)[C@H](Cc1c[nH]cn1)NC(=O)[C@H](CO)NC(=O)[C@H](Cc1c[nH]c2ccccc12)NC(=O)[C@H](Cc1c[nH]cn1)NC(=O)[C@@H]1CCC(=O)N1` [Compound 33, pGlu-His-Trp-Ser-His-D-Nal-Trp-Tyr-Pro-Gly-amide] ([pGlu]HWSH[d2Nal]WYPG-NH2): the Solubility grading in data set [1] was 2. Moreover, the “GNRHR Stimulation at 1 μM” value at GnRHR is given as 67 percentage.
`CCNC(=O)[C@@H]1CCCN1C(=O)[C@H](CCCNC(=N)N)NC(=O)[C@H](CC(C)C)NC(=O)[C@@H](CC(C)C)NC(=O)[C@H](Cc1c[nH]cn1)NC(=O)[C@H](CO)NC(=O)[C@H](Cc1c[nH]c2ccccc12)NC(=O)[C@H](Cc1c[nH]cn1)NC(=O)[C@@H]1CCC(=O)N1` [Compound 42, pGlu-His-Trp-Ser-His-D-Leu-Leu-Arg-Pro-NHEt] ([pGlu]HWSH[dL]LRP-NHEt): the Solubility grading in data set [1] was determined as 1. Moreover, the “GNRHR Stimulation at 1 μM” value at GnRHR stood at 102 percentage.
The like results for `CCNC(=O)[C@@H]1CCCN1C(=O)[C@H](CCCNC(=N)N)NC(=O)[C@H](Cc1c[nH]c2ccccc12)NC(=O)[C@@H](CC(C)C)NC(=O)[C@H](Cc1ccc(O)cc1)NC(=O)[C@H](CO)NC(=O)[C@H](Cc1c[nH]c2ccccc12)NC(=O)[C@H](Cc1c[nH]cn1)NC(=O)[C@@H]1CCC(=O)N1` [Compound 44, pGlu-His-Trp-Ser-Tyr-D-Leu-Trp-Arg-Pro-NHEt] ([pGlu]HWSY[dL]WRP-NHEt) were, in that order, 2 and 111 percentage.
In data set [1], `CCNC(=O)[C@@H]1CCCN1C(=O)[C@H](Cc1ccc(O)cc1)NC(=O)[C@H](CC(C)C)NC(=O)[C@@H](CC(C)C)NC(=O)[C@H](Cc1ccc(O)cc1)NC(=O)[C@H](CO)NC(=O)[C@H](Cc1c[nH]c2ccccc12)NC(=O)[C@H](Cc1c[nH]cn1)NC(=O)[C@@H]1CCC(=O)N1` [Compound 45, pGlu-His-Trp-Ser-Tyr-D-Leu-Leu-Tyr-Pro-NHEt] ([pGlu]HWSY[dL]LYP-NHEt) displayed a Solubility grading of 2. At GnRHR, the “GNRHR Stimulation at 1 μM” value came out at 105 percentage.
The like results for `CCNC(=O)[C@@H]1CCCN1C(=O)[C@H](CCCNC(=N)N)NC(=O)[C@H](Cc1c[nH]c2ccccc12)NC(=O)[C@@H](CC(C)C)NC(=O)[C@H](Cc1c[nH]cn1)NC(=O)[C@H](CO)NC(=O)[C@H](Cc1c[nH]c2ccccc12)NC(=O)[C@H](Cc1c[nH]cn1)NC(=O)[C@@H]1CCC(=O)N1` [Compound 47, pGlu-His-Trp-Ser-His-D-Leu-Trp-Arg-Pro-NHEt] ([pGlu]HWSH[dL]WRP-NHEt) were, in that order, 1 and 119 percentage.
For `CCNC(=O)[C@@H]1CCCN1C(=O)[C@H](Cc1ccc(O)cc1)NC(=O)[C@H](CC(C)C)NC(=O)[C@@H](CC(C)C)NC(=O)[C@H](Cc1c[nH]cn1)NC(=O)[C@H](CO)NC(=O)[C@H](Cc1c[nH]c2ccccc12)NC(=O)[C@H](Cc1c[nH]cn1)NC(=O)[C@@H]1CCC(=O)N1` [Compound 48, pGlu-His-Trp-Ser-His-D-Leu-Leu-Tyr-Pro-NHEt] ([pGlu]HWSH[dL]LYP-NHEt), in that order: 2 and 118 percentage.
For `CCNC(=O)[C@@H]1CCCN1C(=O)[C@H](Cc1ccc(O)cc1)NC(=O)[C@H](Cc1c[nH]c2ccccc12)NC(=O)[C@@H](CC(C)C)NC(=O)[C@H](Cc1ccc(O)cc1)NC(=O)[C@H](CO)NC(=O)[C@H](Cc1c[nH]c2ccccc12)NC(=O)[C@H](Cc1c[nH]cn1)NC(=O)[C@@H]1CCC(=O)N1` [Compound 49, pGlu-His-Trp-Ser-Tyr-D-Leu-Trp-Tyr-Pro-NHEt] ([pGlu]HWSY[dL]WYP-NHEt), in that order: 4 and 77 percentage.
For `CCNC(=O)[C@@H]1CCCN1C(=O)[C@H](Cc1ccc(O)cc1)NC(=O)[C@H](Cc1c[nH]c2ccccc12)NC(=O)[C@@H](CC(C)C)NC(=O)[C@H](Cc1c[nH]cn1)NC(=O)[C@H](CO)NC(=O)[C@H](Cc1c[nH]c2ccccc12)NC(=O)[C@H](Cc1c[nH]cn1)NC(=O)[C@@H]1CCC(=O)N1` [Compound 50, pGlu-His-Trp-Ser-His-D-Leu-Trp-Tyr-Pro-NHEt] ([pGlu]HWSH[dL]WYP-NHEt), the Solubility grading in data set [1] is on record as 1. For the same compound, the “GNRHR Stimulation at 1 μM” value at GnRHR is 105 percentage.
Consider `CCNC(=O)[C@@H]1CCCN1C(=O)[C@H](CCCNC(=N)N)NC(=O)[C@H](CC(C)C)NC(=O)[C@@H](Cc1cn(Cc2ccccc2)cn1)NC(=O)[C@H](Cc1c[nH]cn1)NC(=O)[C@H](CO)NC(=O)[C@H](Cc1c[nH]c2ccccc12)NC(=O)[C@H](Cc1c[nH]cn1)NC(=O)[C@@H]1CCC(=O)N1` [Compound 56, pGlu-His-Trp-Ser-His-D-Bhi-Leu-Arg-Pro-NHEt] ([pGlu]HWSH[dHis(τ-Bn)]LRP-NHEt), for which the Solubility grading in data set [1] is 1. Besides, the “GNRHR Stimulation at 1 μM” value at GnRHR was 96 percentage.
With `CCNC(=O)[C@@H]1CCCN1C(=O)[C@H](Cc1ccc(O)cc1)NC(=O)[C@H](CC(C)C)NC(=O)[C@@H](Cc1cn(Cc2ccccc2)cn1)NC(=O)[C@H](Cc1ccc(O)cc1)NC(=O)[C@H](CO)NC(=O)[C@H](Cc1c[nH]c2ccccc12)NC(=O)[C@H](Cc1c[nH]cn1)NC(=O)[C@@H]1CCC(=O)N1` [Compound 59, pGlu-His-Trp-Ser-Tyr-D-Bhi-Leu-Tyr-Pro-NHEt] ([pGlu]HWSY[dHis(τ-Bn)]LYP-NHEt), the Solubility grading in data set [1] is given as 4. Further, the “GNRHR Stimulation at 1 μM” value on GnRHR was found to be 85 percentage.
For `CCNC(=O)[C@@H]1CCCN1C(=O)[C@H](CCCNC(=N)N)NC(=O)[C@H](Cc1c[nH]c2ccccc12)NC(=O)[C@@H](Cc1cn(Cc2ccccc2)cn1)NC(=O)[C@H](Cc1c[nH]cn1)NC(=O)[C@H](CO)NC(=O)[C@H](Cc1c[nH]c2ccccc12)NC(=O)[C@H](Cc1c[nH]cn1)NC(=O)[C@@H]1CCC(=O)N1` [Compound 60, pGlu-His-Trp-Ser-His-D-Bhi-Trp-Arg-Pro-NHEt] ([pGlu]HWSH[dHis(τ-Bn)]WRP-NHEt), in that order: 2 and 102 percentage.
The like results for `CCNC(=O)[C@@H]1CCCN1C(=O)[C@H](Cc1ccc(O)cc1)NC(=O)[C@H](CC(C)C)NC(=O)[C@@H](Cc1cn(Cc2ccccc2)cn1)NC(=O)[C@H](Cc1c[nH]cn1)NC(=O)[C@H](CO)NC(=O)[C@H](Cc1c[nH]c2ccccc12)NC(=O)[C@H](Cc1c[nH]cn1)NC(=O)[C@@H]1CCC(=O)N1` [Compound 61, pGlu-His-Trp-Ser-His-D-Bhi-Leu-Tyr-Pro-NHEt] ([pGlu]HWSH[dHis(τ-Bn)]LYP-NHEt) were, in that order, 3 and 112 percentage.
As for `CCNC(=O)[C@@H]1CCCN1C(=O)[C@H](Cc1ccc(O)cc1)NC(=O)[C@H](Cc1c[nH]c2ccccc12)NC(=O)[C@@H](Cc1cn(Cc2ccccc2)cn1)NC(=O)[C@H](Cc1ccc(O)cc1)NC(=O)[C@H](CO)NC(=O)[C@H](Cc1c[nH]c2ccccc12)NC(=O)[C@H](Cc1c[nH]cn1)NC(=O)[C@@H]1CCC(=O)N1` [Compound 62, pGlu-His-Trp-Ser-Tyr-D-Bhi-Trp-Tyr-Pro-NHEt] ([pGlu]HWSY[dHis(τ-Bn)]WYP-NHEt), in data set [1], the Solubility grading was found to be 5. Moreover, on GnRHR, the “GNRHR Stimulation at 1 μM” value stood at 77 percentage.
